Key:
Format in all cases: in vivo
DIGSA = assay: Post-emergence biological efficacy; settings: Digitaria sanguinalis, 312 h, evaluated after 13 days, read-out: damage to plant (100=total damage to plant; 0=no damage to plant)
Method in brief: (§1)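 Pot-grown plants were raised 14 days in a glasshouse (24/19 °C day/night, 16 h light), then sprayed post-emergence with an aqueous dilution of a 50 g/l IF50 formulation stock in 0.2% Genapol XO80. They were kept at 24/18 °C, 15 h light, 50% humidity, and visually scored for damage after 13 days (0 = none, 100 = total).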

LOLPE [1] = assay: Post-emergence biological efficacy; settings: Lolium perenne, 312 h, evaluated after 13 days, read-out: damage to plant (100=total damage to plant; 0=no damage to plant)
Method in brief: as §1

IPOHE [2] = assay: Post-emergence biological efficacy; settings: Ipomoea hederacea, 312 h, evaluated after 13 days, read-out: damage to plant (100=total damage to plant; 0=no damage to plant)
Method in brief: as §1

ELEIN = assay: Post-emergence biological efficacy; settings: 312 h, evaluated after 13 days, read-out: damage to plant (100=total damage to plant; 0=no damage to plant)
Method in brief: as §1

EPHHL [3] = assay: Post-emergence biological efficacy; settings: Euphorbia heterophylla, 312 h, evaluated after 13 days, read-out: damage to plant (100=total damage to plant; 0=no damage to plant)
Method in brief: as §1

CHEAL = assay: Post-emergence biological efficacy; settings: Chenopodium album, 312 h, evaluated after 13 days, read-out: damage to plant (100=total damage to plant; 0=no damage to plant)
Method in brief: as §1

ECHCG [4] = assay: Post-emergence biological efficacy; settings: Echinochloa crus-galli, 312 h, evaluated after 13 days, read-out: damage to plant (100=total damage to plant; 0=no damage to plant)
Method in brief: as §1

AMAPA [5] = assay: Post-emergence biological efficacy; settings: Amaranthus palmeri, 312 h, evaluated after 13 days, read-out: damage to plant (100=total damage to plant; 0=no damage to plant)
Method in brief: as §1

SETFA [6] = assay: Post-emergence biological efficacy; settings: Setaria faberi, 312 h, evaluated after 13 days, read-out: damage to plant (100=total damage to plant; 0=no damage to plant)
Method in brief: as §1

LOLPE [7] = assay: Pre-emergence biological efficacy; settings: Lolium perenne, 312 h, evaluated after 13 days, read-out: damage to plant (100=total damage to plant; 0=no damage to plant)
Method in brief: (§2)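 Injury rating (0 = no damage, 100 = plant killed) taken 13 days after a single spray of compound at the chosen dose onto freshly sown pots held 1 day in the glasshouse beforehand.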

IPOHE [8] = assay: Pre-emergence biological efficacy; settings: Ipomoea hederacea, 312 h, evaluated after 13 days, read-out: damage to plant (100=total damage to plant; 0=no damage to plant)
Method in brief: as §2

EPHHL [9] = assay: Pre-emergence biological efficacy; settings: Euphorbia heterophylla, 312 h, evaluated after 13 days, read-out: damage to plant (100=total damage to plant; 0=no damage to plant)
Method in brief: as §2

ECHCG [10] = assay: Pre-emergence biological efficacy; settings: Echinochloa crus-galli, 312 h, evaluated after 13 days, read-out: damage to plant (100=total damage to plant; 0=no damage to plant)
Method in brief: as §2

AMAPA [11] = assay: Pre-emergence biological efficacy; settings: Amaranthus palmeri, 312 h, evaluated after 13 days, read-out: damage to plant (100=total damage to plant; 0=no damage to plant)
Method in brief: as §2

SETFA [12] = assay: Pre-emergence biological efficacy; settings: Setaria faberi, 312 h, evaluated after 13 days, read-out: damage to plant (100=total damage to plant; 0=no damage to plant)
Method in brief: as §2

CCOC(=O)C1(C)CC(c2cc(-c3ncc(C(F)(F)F)cc3Br)c(F)cc2Cl)=NO1 (stereo not drawn) [Compound 1-571, Ethyl 3-[5-[3-bromo-5-(trifluoromethyl)-2-pyridyl]-2-chloro-4-fluoro-phenyl]-5-methyl-4H-isoxazole-5-carboxylate]
pest or weed control at 250 g/ha (DIGSA): 60%
pest or weed control at 250 g/ha (LOLPE [1]): 90%
pest or weed control at 250 g/ha (IPOHE [2]): 70%
pest or weed control at 250 g/ha (ELEIN): 90%
pest or weed control at 250 g/ha (EPHHL [3]): 100%
pest or weed control at 250 g/ha (CHEAL): 100%
pest or weed control at 250 g/ha (ECHCG [4]): 30%
pest or weed control at 250 g/ha (AMAPA [5]): 100%
pest or weed control at 250 g/ha (SETFA [6]): 90%
pest or weed control at 250 g/ha (LOLPE [7]): 70%
pest or weed control at 250 g/ha (IPOHE [8]): 0%
pest or weed control at 250 g/ha (EPHHL [9]): 0%
pest or weed control at 250 g/ha (ECHCG [10]): 10%
pest or weed control at 250 g/ha (AMAPA [11]): 100%
pest or weed control at 250 g/ha (SETFA [12]): 10%

CCOC(=O)C1(C)CC(c2cc(-c3ncc(C(F)F)cc3Cl)c(F)cc2Cl)=NO1 (stereo not drawn) [Compound 1-583, Ethyl 3-[2-chloro-5-[3-chloro-5-(difluoromethyl)-2-pyridyl]-4-fluoro-phenyl]-5-methyl-4H-isoxazole-5-carboxylate]
pest or weed control at 250 g/ha (DIGSA): 90%
pest or weed control at 250 g/ha (LOLPE [1]): 100%
pest or weed control at 250 g/ha (IPOHE [2]): 100%
pest or weed control at 250 g/ha (ELEIN): 90%
pest or weed control at 250 g/ha (EPHHL [3]): 100%
pest or weed control at 250 g/ha (CHEAL): 100%
pest or weed control at 250 g/ha (ECHCG [4]): 100%
pest or weed control at 250 g/ha (AMAPA [5]): 100%
pest or weed control at 250 g/ha (SETFA [6]): 100%
pest or weed control at 250 g/ha (LOLPE [7]): 60%
pest or weed control at 250 g/ha (IPOHE [8]): 60%
pest or weed control at 250 g/ha (EPHHL [9]): 100%
pest or weed control at 250 g/ha (ECHCG [10]): 90%
pest or weed control at 250 g/ha (AMAPA [11]): 100%
pest or weed control at 250 g/ha (SETFA [12]): 90%

CCOC(=O)C1(C)CC(c2cc(-c3ncc(C(C)(F)F)cc3Cl)c(F)cc2Cl)=NO1 (stereo not drawn) [Compound 1-595, ethyl 3-[2-chloro-5-[3-chloro-5-(1,1-difluoroethyl)-2-pyridyl]-4-fluoro-phenyl]-5-methyl-4H-isoxazole-5-carboxylate]
pest or weed control at 250 g/ha (DIGSA): 100%
pest or weed control at 250 g/ha (LOLPE [1]): 100%
pest or weed control at 250 g/ha (IPOHE [2]): 100%
pest or weed control at 250 g/ha (ELEIN): 100%
pest or weed control at 250 g/ha (EPHHL [3]): 100%
pest or weed control at 250 g/ha (CHEAL): 100%
pest or weed control at 250 g/ha (ECHCG [4]): 100%
pest or weed control at 250 g/ha (AMAPA [5]): 100%
pest or weed control at 250 g/ha (SETFA [6]): 100%
pest or weed control at 250 g/ha (LOLPE [7]): 90%
pest or weed control at 250 g/ha (IPOHE [8]): 80%
pest or weed control at 250 g/ha (EPHHL [9]): 100%
pest or weed control at 250 g/ha (ECHCG [10]): 100%
pest or weed control at 250 g/ha (AMAPA [11]): 100%
pest or weed control at 250 g/ha (SETFA [12]): 100%

CCOC(=O)C1(C)CC(c2cc(-c3ncc(C#N)cc3Cl)c(F)cc2Cl)=NO1 (stereo not drawn) [Compound 1-607, Ethyl 3-[2-chloro-5-(3-chloro-5-cyano-2-pyridyl)-4-fluoro-phenyl]-5-methyl-4H-isoxazole-5-carboxylate]
pest or weed control at 250 g/ha (DIGSA): 70%
pest or weed control at 250 g/ha (LOLPE [1]): 70%
pest or weed control at 250 g/ha (IPOHE [2]): 100%
pest or weed control at 250 g/ha (ELEIN): 60%
pest or weed control at 250 g/ha (EPHHL [3]): 100%
pest or weed control at 250 g/ha (CHEAL): 100%
pest or weed control at 250 g/ha (ECHCG [4]): 40%
pest or weed control at 250 g/ha (AMAPA [5]): 100%
pest or weed control at 250 g/ha (SETFA [6]): 80%
pest or weed control at 250 g/ha (LOLPE [7]): 20%
pest or weed control at 250 g/ha (IPOHE [8]): 30%
pest or weed control at 250 g/ha (EPHHL [9]): 50%
pest or weed control at 250 g/ha (ECHCG [10]): 70%
pest or weed control at 250 g/ha (AMAPA [11]): 100%
pest or weed control at 250 g/ha (SETFA [12]): 10%

CCOC(=O)C1(C)CC(c2cc(-c3ncc(C(C)=O)cc3Cl)c(F)cc2Cl)=NO1 (stereo not drawn) [Compound 1-631, Ethyl 3-[5-(5-acetyl-3-chloro-2-pyridyl)-2-chloro-4-fluoro-phenyl]-5-methyl-4H-isoxazole-5-carboxylate]
pest or weed control at 250 g/ha (DIGSA): 30%
pest or weed control at 250 g/ha (LOLPE [1]): 0%
pest or weed control at 250 g/ha (IPOHE [2]): 40%
pest or weed control at 250 g/ha (ELEIN): 10%
pest or weed control at 250 g/ha (EPHHL [3]): 20%
pest or weed control at 250 g/ha (CHEAL): 20%
pest or weed control at 250 g/ha (ECHCG [4]): 40%
pest or weed control at 250 g/ha (AMAPA [5]): 10%
pest or weed control at 250 g/ha (SETFA [6]): 10%
pest or weed control at 250 g/ha (LOLPE [7]): 0%
pest or weed control at 250 g/ha (IPOHE [8]): 0%
pest or weed control at 250 g/ha (EPHHL [9]): 0%
pest or weed control at 250 g/ha (ECHCG [10]): 0%
pest or weed control at 250 g/ha (AMAPA [11]): 0%
pest or weed control at 250 g/ha (SETFA [12]): 0%

CCOC(=O)C1(C)CC(c2cc(-c3ncc(S(C)(=O)=O)cc3Cl)c(F)cc2Cl)=NO1 (stereo not drawn) [Compound 1-643, Ethyl 3-[2-chloro-5-(3-chloro-5-methylsulfonyl-2-pyridyl)-4-fluoro-phenyl]-5-methyl-4H-isoxazole-5-carboxylate]
pest or weed control at 250 g/ha (DIGSA): 100%
pest or weed control at 250 g/ha (LOLPE [1]): 100%
pest or weed control at 250 g/ha (IPOHE [2]): 100%
pest or weed control at 250 g/ha (ELEIN): 100%
pest or weed control at 250 g/ha (EPHHL [3]): 100%
pest or weed control at 250 g/ha (CHEAL): 100%
pest or weed control at 250 g/ha (ECHCG [4]): 100%
pest or weed control at 250 g/ha (AMAPA [5]): 100%
pest or weed control at 250 g/ha (SETFA [6]): 100%
pest or weed control at 250 g/ha (LOLPE [7]): 100%
pest or weed control at 250 g/ha (IPOHE [8]): 100%
pest or weed control at 250 g/ha (EPHHL [9]): 100%
pest or weed control at 250 g/ha (ECHCG [10]): 100%
pest or weed control at 250 g/ha (AMAPA [11]): 100%
pest or weed control at 250 g/ha (SETFA [12]): 100%

CCOC(=O)C1(C)CC(c2cc(-c3ccc(C(F)(F)F)nc3Cl)c(F)cc2Cl)=NO1 (stereo not drawn) [Compound 1-655, Ethyl 3-[2-chloro-5-[2-chloro-6-(trifluoromethyl)-3-pyridyl]-4-fluoro-phenyl]-5-methyl-4H-isoxazole-5-carboxylate]
pest or weed control at 250 g/ha (DIGSA): 70%
pest or weed control at 250 g/ha (LOLPE [1]): 80%
pest or weed control at 250 g/ha (IPOHE [2]): 100%
pest or weed control at 250 g/ha (ELEIN): 80%
pest or weed control at 250 g/ha (EPHHL [3]): 100%
pest or weed control at 250 g/ha (CHEAL): 100%
pest or weed control at 250 g/ha (ECHCG [4]): 90%
pest or weed control at 250 g/ha (AMAPA [5]): 100%
pest or weed control at 250 g/ha (SETFA [6]): 90%
pest or weed control at 250 g/ha (LOLPE [7]): 40%
pest or weed control at 250 g/ha (IPOHE [8]): 40%
pest or weed control at 250 g/ha (EPHHL [9]): 90%
pest or weed control at 250 g/ha (ECHCG [10]): 40%
pest or weed control at 250 g/ha (AMAPA [11]): 100%
pest or weed control at 250 g/ha (SETFA [12]): 30%

CCOC(=O)C1(C)CC(c2cc(-c3c(Cl)cc(C(F)(F)F)c[n+]3[O-])ccc2Cl)=NO1 (stereo not drawn) [Compound 1-663, Ethyl 3-[2-chloro-5-(3-chloro-1-oxido-5-trifluoromethyl-2-pyridyl)-phenyl]-5-methyl-4H-isoxazole-5-carboxylate]
pest or weed control at 250 g/ha (DIGSA): 100%
pest or weed control at 250 g/ha (LOLPE [1]): 100%
pest or weed control at 250 g/ha (IPOHE [2]): 100%
pest or weed control at 250 g/ha (ELEIN): 100%
pest or weed control at 250 g/ha (EPHHL [3]): 100%
pest or weed control at 250 g/ha (CHEAL): 100%
pest or weed control at 250 g/ha (ECHCG [4]): 100%
pest or weed control at 250 g/ha (AMAPA [5]): 100%
pest or weed control at 250 g/ha (SETFA [6]): 100%
pest or weed control at 250 g/ha (LOLPE [7]): 50%
pest or weed control at 250 g/ha (IPOHE [8]): 90%
pest or weed control at 250 g/ha (EPHHL [9]): 90%
pest or weed control at 250 g/ha (ECHCG [10]): 30%
pest or weed control at 250 g/ha (AMAPA [11]): 100%
pest or weed control at 250 g/ha (SETFA [12]): 40%

— patent US20240124432A1, “HERBICIDAL COMPOUNDS” (SYNGENTA CROP PROTECTION AG, priority 2020, published 2024)
